Patent US20250161248A1, “Treating Chronic Myelomonocytic Leukemia with CXCL8 Receptor Inhibitors” (Institut Gustave Roussy, priority 2023, published 2025)
“Also recorded” adds a separate entry of the source.

Key:
[1] = test system: wildtype CD34+ cells (cord blood, healthy donor bone marrow); assay: CD34+ liquid culture, cell output/proliferation (healthy donor cells); format: cell-based, human; details: for proliferation of wildtype CD34+ cells in liquid culture: inhibitor 10 uM in combination with CXCL8 10 ng/mL, FIG. 12E
Procedure: (§1) Reagents, CXCR1/2 inhibitors Reparixin and Ladarixin were from MedChemTronica and Clinisciences, respectively, dissolved in dimethylsulfoxide (DMSO). Stem cell factor recombinant (SCF), interleukin-3 recombinant (IL-3), thrombopoietin recombinant (TPO), Fms-like tyrosine kinase 3 recombinant (FLT-3) and Interleukin 8 (IL-8 or CXCL8) were from Peprotech.
(§2) CD34^+ cultures, CD34^+ cells were cultured for 72 h at 1×10^5 cells/ml in complete MEM-alpha medium, SCF (50 ng/mL), IL-3 (10 ng/mL), TPO (10 ng/mL) and FLT-3 (50 ng/mL […]), to which CXCL8 was added in a 37° C. incubator with 5% CO2. Cells were counted after Trypan blue staining. For methylcellulose assays, CD34+ cells were plated in duplicate, at 500 cells with 1 mL complete methylcellulose (MethoCult™ H4034 Optimum, Stem cell) with indicated doses of CXCL8. Colonies were enumerated and phenotyped at day 14.

[2] = test system: healthy donor CD34+ cells (cord blood, bone marrow); assay: Methylcellulose colony formation assay (healthy donor cells); format: cell-based, human; details: for colony forming capacity of wildtype CD34+ cells (total colony output): inhibitor 10 mM (so in the source) in combination with CXCL8 10 ng/mL, FIG. 6F
Procedure: as §1, §2

[3] = test system: neutrophil-dependent airway inflammation; details: mice; cited from earlier work
uveal melanoma = details: animal model of uveal melanoma; cited from earlier work
[4] = test system: pancreatic ductal adenocarcinoma (PDAC); details: cited from earlier work
CXCR1 and CXCR2 = details: CXCR1 over CXCR2; cited from earlier work
[5] = test system: HER-2 negative metastatic breast cancer; details: phase I, in combination with paclitaxel chemotherapy; cited from earlier work
[6] = test system: thyroid cancer tumor cells; details: in vitro; cited from earlier work
[7] = test system: triple negative breast cancer; details: phase II, in combination with paclitaxel; cited from earlier work
[8] = test system: ischemia-reperfusion injury; details: clinical studies; cited from earlier work
CMML CD34+ cells [9] = assay: Methylcellulose colony formation assay (CMML cells); format: cell-based, human; details: methylcellulose with CXCL8
Procedure: as §2

CMML CD34+ cells [10] = assay: CD34+ liquid culture, cell output/proliferation (CMML cells); format: cell-based, human; details: liquid culture with CXCL8
Procedure: as §2

Compound | proliferation of wildtype CD34+ cells in liquid culture [1] | colony forming capacity of wildtype CD34+ cells (total colony output) [2] | neutrophil-dependent airway inflammation [3] | TAM polarization (uveal melanoma) | tumor cell migration (uveal melanoma) | antitumor activity of combination ([4]; mouse PDAC model, ladarixin combined with an anti-PD-1 monoclonal antibody) | activity in PDAC model ([4]; mouse model, ladarixin) | potency to inhibit CXCR1 activity relative to CXCR2 (CXCR1 and CXCR2) [fold] | healthy donor CD34+ colony formation in presence of IGRAN supernatant ([2]; IGRAN supernatant plus reparixin 10 mM (so in the source), FIG. 6G) | tolerability [5] | direct anti-tumor activity, tumor cell proliferation [6] | clinical benefit compared to paclitaxel alone [7] | neutrophil recruitment and inflammatory injury in ischemia-reperfusion [8] | cord blood CD34+ cell proliferation ([1]; liquid culture with indicated doses of CXCL8, FIG. 6A) | adult healthy donor bone marrow CD34+ cell proliferation ([1]; liquid culture, CXCL8 10 ng/mL, 72 hours, FIG. 12A, 12E) | colony number / colony forming capacity of healthy cord blood or bone marrow CD34+ cells ([2]; 14 days, CXCL8, CFU-GM and CFU-E affected, FIG. 6B, 6F) | CMML CD34+ cell proliferation in colony formation assays (CMML CD34+ cells [9]) | CMML CD34+ cell proliferation (CMML CD34+ cells [10])
C[C@@H](C(=O)NS(C)(=O)=O)c1ccc(OS(=O)(=O)C(F)(F)F)cc1 [ladarixin, 4-[(2 R)-1-oxo-1-(methanesulfonamido)propan-2-yl]phenyl trifluoromethanesulfonate] | restored | restored | improves neutrophil-dependent airway inflammation | repolarized TAMs to a M1 phenotype | inhibited tumor cell migration | improved antitumor activity compared to either agent alone | significant activity |  |  |  |  |  |  |  |  |  |  | 
CC(C)Cc1ccc([C@@H](C)C(=O)NS(C)(=O)=O)cc1 [reparixin, R-(−)-2-(4-isobutylphenyl)propionyl methansulfonamide] | restored | restored |  |  |  |  |  | 400 | blocked the inhibitory effects of this supernatant | well tolerated | inhibiting tumor cell proliferation | no additional clinical benefit | effectively regulate neutrophil recruitment and attenuate inflammatory injury |  |  |  |  | 
CXCL8: Interleukin 8 (IL-8 or CXCL8) chemokine from Peprotech, added to CD34+ cultures |  |  |  |  |  |  |  |  |  |  |  |  |  | dose-dependent inhibition | decreased | decrease in colony number; also recorded: decreased colony forming capacity | not affected | failed to inhibit
